Type in all cases: cell-based
Test [1] concerns MCF-7. The test can be described thus: MTT cytotoxicity on MCF-7 breast cancer cells.
For test [2], the system named is MDA-MB 231. The test can be described thus: MTT cytotoxicity on MDA-MB 231 breast cancer cells. The settings on record: Homo sapiens, MDA-MB-231, read-out: MDA-MB 231 IC50.
Test [3] relates to Wi-38. The test can be described thus: MTT cytotoxicity on normal fibroblasts. To be noted: Homo sapiens, WI-38, read-out: Wi-38 IC50.
The subject of test [4] is Bcl-2. The test can be described thus: Bcl-2 expression in treated MCF-7 cells. The settings on record: for Relative fold change in Bcl-2 expression: MCF-7, mean ± SEM; for diminished levels of Bcl-2: tested cancer cell lines, MCF-7 and MDA-MB 231.
Test [5] has as its system P53. The test can be described thus: Quantitative detection of P53 expression in treated MCF-7 cells. To be noted: MCF-7, vs control, mean ± SEM.
Test [6] relates to caspase 3/7. The test can be described thus: Caspase 3/7 activation assay in MCF-7 cells. The settings on record: for Relative fold activation of caspase 3/7: MCF-7 treated with IC50, mean ± SEM; for activation of caspase 3/7: treated breast cancer cell lines (MCF-7 and MDA-MB 231), IC50s.
Test [7] has as its system BAX. The test can be described thus: BAX expression in treated MCF-7 cells. The settings on record: for Relative fold change in BAX expression: MCF-7, mean ± SEM; for overexpression of apoptosis regulator BAX: tested cancer cell lines, MCF-7 and MDA-MB 231.
Test [8] has as its system Bcl-2. The test can be described thus: Bcl-2 expression in treated MDA-MB 231 cells. The settings on record: MDA-MB 231, mean ± SEM.
In test [9] the test system is P53. The test can be described thus: Quantitative detection of P53 expression in treated MDA-MB 231 cells. The settings on record: MDA-MB 231, vs control, mean ± SEM.
In test [10] the test system is BAX. The test can be described thus: BAX expression in treated MDA-MB 231 cells. The settings on record: MDA-MB 231, mean ± SEM.
For test [11], the system named is caspase 3/7. The test can be described thus: Caspase 3/7 activation assay in MDA-MB 231 cells. The settings on record: MDA-MB 231 treated with IC50, mean ± SEM.
The mark [12] stands for this setting: Homo sapiens, MCF7, read-out: MCF-7 IC50, MTT, mean ± SEM.
The mark [13] stands for this setting: read-out: MCF-7 IC50, MTT, mean ± SEM.

SMILES strings stand for the structures. Where two headings read alike, the source gives them in different places.

As usually defined, the IC50 is the concentration that gives 50% inhibition. `CCOC(=O)c1ccc(NC(=O)C(c2ccccc2)N(C(=O)C(F)(F)F)c2ccccc2)cc1` (centres unmarked) [Compound 2, Ethyl-4-(-phenyl-2-(2,2,2-trifluoro-N-phenylacetamido)acetamido)benzoate]: the IC50 was determined as 369 ± 14 nM in [1] (setting [12]), 472 ± 13 nM in test [2] and 147 ± 20 nM in test [3].
As to `CCOC(=O)c1ccc(NC(=O)C(c2ccccc2)N(C(=O)c2ccccc2C)c2ccccc2)cc1` (centres unmarked) [Compound 3, Ethyl-4-(2-(2-methyl-N-phenylbenzamido)-2-phenylacetamido)benzoate], in test [4], the “Relative fold change in Bcl-2 expression” value came to 0.217 ± 0.006 fold and the “diminished levels of Bcl-2” value is 0.13–0.49 folds. Further, in test [1] (setting [12]), the IC50 is around 80 nM. The IC50 in test [1] (setting [13]) was 86 ± 16 nM. Further, the “Relative fold change in the P53 expression” value in [5] was found to be 4.110 ± 0.1014 fold. In test [6], the “Relative fold activation of caspase 3/7” value is on record as 3.470 ± 0.0485 fold and the “activation of caspase 3/7” value was 2.6–4.1 folds. Also, in [7], the “Relative fold change in BAX expression” value was 2.448 ± 0.057 fold and the “overexpression of apoptosis regulator BAX” value (shortened to “overexpression”) is on record as 2.3–3.3 folds. For the same molecule, in [2], the IC50 was 306 ± 14 nM. Besides, the IC50 in test [3] came out at 1330 ± 84 nM.
As for `CCOC(=O)c1ccc(NC(=O)C(c2ccccc2)N(C(=O)c2ccccc2I)c2ccccc2)cc1` (centres unmarked) [Compound 4, Ethyl-4-(2-(2-iodo-N-phenylbenzamido)-2-phenylacetamido)benzoate], the “Relative fold change in Bcl-2 expression” value in [8] worked out at 0.496 ± 0.005 fold; in test [4] it was 0.233 ± 0.0017 fold. The “Relative fold change in the P53 expression” value in test [9] came to 3.309 ± 0.110 fold; in test [5] it was 4.137 ± 0.0407 fold. Moreover, the “diminished levels of Bcl-2” value in [4] was 0.13–0.49 folds. Further, the “Relative fold change in BAX expression” value is on record as 2.338 ± 0.021 fold in test [10] and 2.747 ± 0.1285 fold in test [7]. In addition, the results for the IC50 in test [1] (setting [12]), in test [2] and in test [3] were 96 ± 7 nM, 188 ± 44 nM and 418 ± 33 nM, respectively. The “Relative fold activation of caspase 3/7” value came to 2.618 ± 0.1615 fold in [11] and 3.113 ± 0.1012 fold in test [6]. Further, the “activation of caspase 3/7” value in [6] is given as 2.6–4.1 folds. Also, the “overexpression” value in test [7] was 2.3–3.3 folds.
For the molecule `CCOC(=O)c1ccc(NC(=O)C(c2ccccc2)N(C(=O)c2ccccc2[N+](=O)[O-])c2ccccc2)cc1` (centres unmarked) [Compound 5, Ethyl-4-(2-(2-nitro-N-phenylbenzamido)-2-phenylacetamido)benzoate], the IC50 in test [1] (setting [12]) worked out at 229 ± 42 nM; in test [2], 302 ± 24 nM; in [3], 570 ± 72 nM.
In the case of `CCOC(=O)c1ccc(NC(=O)C(c2ccccc2)N(C(=O)c2cc([N+](=O)[O-])cc([N+](=O)[O-])c2)c2ccccc2)cc1` (centres unmarked) [Compound 6, Ethyl-4-(2-(3,5-dinitro-N-phenylbenzamido)-2-phenylacetamido)benzoate], the results for the IC50 in [1] (setting [12]), in [2] and in [3] were 143 ± 16 nM, 370 ± 94 nM and 538 ± 25 nM, respectively.
In the case of `CCOC(=O)c1ccc(N2C(=O)C(c3ccccc3)N(c3ccccc3)C2=O)cc1` (centres unmarked) [Compound 8, Ethyl-4-(2,5-dioxo-3,4-diphenylimidazolidin-1-yl)benzoate], the “Relative fold change in Bcl-2 expression” value in test [8] stood at 0.454 ± 0.010 fold; in test [4], 0.163 ± 0.0035 fold. Also, the “Relative fold change in the P53 expression” value is on record as 3.733 ± 0.023 fold in [9] and 4.810 ± 0.1014 fold in test [5]. Further, the “diminished levels of Bcl-2” value in [4] is listed as 0.13–0.49 folds. For the same molecule, the “Relative fold change in BAX expression” value stood at 2.479 ± 0.030 fold in test [10] and 3.195 ± 0.082 fold in test [7]. The IC50 in test [1] (setting [12]) was 78 ± 72 nM; in test [2], 146 ± 34 nM; in [3] it was 953 ± 37 nM. For the same molecule, the “Relative fold activation of caspase 3/7” value in test [11] is reported as 2.945 ± 0.0885 fold; in test [6], 3.763 ± 0.011 fold. In addition, the “activation of caspase 3/7” value in test [6] is recorded as 2.6–4.1 folds. Further, in test [7], the “overexpression” value is 2.3–3.3 folds.
As for `CCOC(=O)c1ccc(NC(=O)C2(OC(=O)c3ccccc3C)CCCCC2)cc1` [Compound 9, 1-((4-(Ethoxycarbonyl)phenyl)carbamoyl)cyclohexyl-2-methylbenzoate], the figures for the half-inhibitory concentration (IC50) in [1] (setting [12]), in test [2] and in [3] were 440 ± 6 nM, 445 ± 4 nM and 608 ± 12 nM, respectively.
Taken in the same sequence, the figures for `CCOC(=O)c1ccc(NC(=O)C2(OC(=O)c3ccc(N=[N+]=[N-])cc3)CCCCC2)cc1` [Compound 10, 1-((4-(Ethoxycarbonyl)phenyl)carbamoyl)cyclohexyl-4-azidobenzoate] were 439 ± 5 nM, 470 ± 12 nM and 505 ± 1 nM.
Take `CCOC(=O)c1ccc(NC(=O)C2(OC(=O)c3ccc([N+](=O)[O-])cc3)CCCCC2)cc1` [Compound 11, 1-((4-(Ethoxycarbonyl)phenyl)carbamoyl)cyclohexyl 4-nitrobenzoate]: the figures for the IC50 in test [1] (setting [12]), in test [2] and in test [3] were 591 ± 35 nM, 756 ± 175 nM and 516 ± 11 nM, respectively.
As to `CCOC(=O)c1ccc(NC(=O)C2(OC(=O)c3ccc(NS(=O)(=O)c4ccccc4)cc3)CCCCC2)cc1` [Compound 12, 1-((4-(Ethoxycarbonyl)phenyl)carbamoyl)cyclohexyl-4-(phenylsulfonamido)benzoate], the “Relative fold change in Bcl-2 expression” value in test [8] amounted to 0.376 ± 0.037 fold; in test [4] it was 0.129 ± 0.0027 fold. Besides, the results for the “Relative fold change in the P53 expression” value in [9] and in [5] were 4.312 ± 0.075 fold and 5.168 ± 0.0676 fold, respectively. Also, in [4], the “diminished levels of Bcl-2” value is reported as 0.13–0.49 folds. Further, the results for the “Relative fold change in BAX expression” value in test [10] and in test [7] were 2.683 ± 0.065 fold and 3.337 ± 0.1485 fold, respectively. The figures for the IC50 in test [1] (setting [12]), in [2] and in [3] were 65 ± 50 nM, 135 nM and 633 ± 1 nM, respectively. Besides, the entries for the “Relative fold activation of caspase 3/7” value in test [11] and in test [6] were 3.304 ± 0.0745 fold and 4.105 ± 0.0795 fold, respectively. Besides, the “activation of caspase 3/7” value in test [6] is 2.6–4.1 folds. Moreover, the “overexpression” value in test [7] is 2.3–3.3 folds.
Turning to `CCOC(=O)c1ccc(NC(=O)C2(OC(=O)CNS(=O)(=O)c3ccccc3)CCCCC2)cc1` [Compound 13, Ethyl 4-(1-(2-(phenylsulfonamido)acetoxy)cyclohexanecarboxamido)benzoate], the IC50 in test [1] (setting [12]) is 142 ± 27 nM; in test [2] it was 513 ± 66 nM; in [3], 590 ± 26 nM.
Taken in the same sequence, the figures for `O=C(O)OC1(C(=O)Nc2ccc(C(=O)O)cc2)CCCCC1` [Compound 15, 4-(1-(Carboxyoxy)cyclohexane-1-carboxamido)benzoic acid] were 264 ± 159 nM, 261 ± 25 nM and 827 ± 4 nM.
As for `NNC(=O)c1ccc(NC(=O)C2(O)CCCCC2)cc1` [Compound 16, N-(4-(Hydrazinecarbonyl)phenyl)-1-hydroxycyclohexane-1-carboxamide], the values for the IC50 in test [1] (setting [12]), in test [2] and in test [3] were 968 ± 36 nM, 1030 ± 36 nM and 3327 ± 32 nM, respectively.
For the molecule `O=C(NNC(=S)Nc1ccccc1)c1ccc(NC(=O)C2(O)CCCCC2)cc1` [Compound 17, 1-Hydroxy-N-(4-(2-(phenylcarbamothioyl)hydrazine-1-carbonyl)phenyl)cyclohexane-1-carboxamide], in [4], the “Relative fold change in Bcl-2 expression” value worked out at 0.201 ± 0.0075 fold and the “diminished levels of Bcl-2” value is on record as 0.13–0.49 folds. In [1] (setting [12]), the IC50 is around 80 nM. Moreover, the IC50 in test [1] (setting [13]) was determined as 82 ± 2 nM. Besides, the “Relative fold change in the P53 expression” value in test [5] is 4.377 ± 0.144 fold. Further, in [6], the “Relative fold activation of caspase 3/7” value was 3.677 ± 0.0145 fold and the “activation of caspase 3/7” value is 2.6–4.1 folds. In [7], the “Relative fold change in BAX expression” value came out at 3.042 ± 0.0365 fold and the “overexpression” value is listed as 2.3–3.3 folds. Further, the IC50 in test [2] was 518 ± 81 nM. For the same molecule, the half-inhibitory concentration (IC50) in [3] was 1540 ± 122 nM.
`COc1cccc2c1C(=O)c1c(O)c3c(c(O)c1C2=O)C[C@@](O)(C(=O)CO)C[C@@H]3O[C@H]1C[C@H](N)[C@H](O)[C@H](C)O1` [Doxorubicin, reference compound]: the “Relative fold change in Bcl-2 expression” value is 0.798 ± 0.044 fold in test [8] and 0.592 ± 0.031 fold in [4]. Further, the “Relative fold change in the P53 expression” value in [9] is 1.623 ± 0.122 fold; in test [9] (listed as doxorubicin) it was 1.6 fold; in test [5] it was 2.148 ± 0.174 fold; in test [5] (listed as doxorubicin) it was 2.1 fold. The figures for the “Relative fold change in BAX expression” value in test [10] and in [7] were 1.232 ± 0.019 fold and 1.556 ± 0.054 fold, respectively. Further, the IC50 stood at 478 ± 76 nM in test [1] (setting [12]), 2830 ± 173 nM in test [2] and 272 ± 53 nM in [3]. The “Relative fold activation of caspase 3/7” value amounted to 1.272 ± 0.074 fold in [11] and 1.881 ± 0.028 fold in test [6].

(Values after PMC10509784 (RSC Advances, 2023).)
